Laboratory results: patent publication US20230031406A1, “COMPOUNDS AND COMPOSITIONS FOR TREATING CONDITIONS ASSOCIATED WITH NLRP ACTIVITY” (Novartis AG, priority 2018, published 2023)

test system: PMA-differentiated THP-1 cells; assay: IL-1β production in PMA-differentiated THP-1 cells stimulated with gramicidin (hTHP-1 assay containing 2% fetal bovine serum; Procedures 1 and 2); assay type: cell-based, human; settings: Homo sapiens, THP-1, Table B2; 2% fetal bovine serum; class symbols; read-out: hTHP-1 IC50
Procedure, shortened: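 THP-1 cells were differentiated with PMA (20 ng/ml, 16-18 h), detached, and plated at 50,000 cells/well in RPMI 1640 with 2% FBS. They were pre-treated with compound (0.0017–100 μM, 0.37% DMSO) for 1 h, then stimulated with gramicidin (5 μM) for 2 h. Supernatant IL-1β was measured by HTRF.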

Q: How did the IC50 turn out when `CC(C)n1nc(S(N)(=O)=NC(=O)Nc2c3c(nc4c2CCC4(C)C)CCC3)cc1CO` (single isomer, unassigned) [Compound 652a] was run?
A: 0.2 to 1 µM

Q: How did the IC50 turn out when `CC(C)n1cc(S(N)(=O)=NC(=O)Nc2c3c(nc4c2CCC4(C)C)CCC3)c(CO)n1` (single isomer, unassigned) [Compound 653a, (R) or (S)-N′-((3,3-dimethyl-1,2,3,5,6,7-hexahydrodicyclopenta [b,e]pyridin-8-yl)carbamoyl)-3-(hydroxymethyl)-1-isopropyl-1H-pyrazole-4-sulfonimidamide] was run?
A: 5 to 30 µM

Q: With `Cc1c(C(C)(C)C)nc2c(c1NC(=O)N=S(N)(=O)c1cc(C(C)(C)O)cs1)CCC2` (single isomer, unassigned) [Compound 657b, (R) or (S)-N′-((2-(tert-butyl)-3-methyl-6,7-dihydro-5H-cyclopenta[b]pyridin-4-yl)carbamoyl)-4-(2-hydroxypropan-2-yl)thiophene-2-sulfonimidamide] as the compound, how does the IC50 read?
A: 5 to 30 µM

Q: `Cc1c(C2CCC2)nc2c(c1NC(=O)N=S(N)(=O)c1cc(C(C)(C)O)cs1)CCC2` (single isomer, unassigned) [Compound 658b, (R) or (S)-N′-((2-cyclobutyl-3-methyl-6,7-dihydro-5H-cyclopenta[b]pyridin-4-yl)carbamoyl)-4-(2-hydroxypropan-2-yl)thiophene-2-sulfonimidamide] was tested. Which IC50 did it give?
A: 1 to 5 µM

Q: With `CC1CCc2c1nc1c(c2NC(=O)N=S(N)(=O)c2cn(C(C)C)cn2)CCC1` (single isomer, unassigned) [Compound 660d, (R, R) or (S, R) or (R, S) or (S, S)-1-isopropyl-N′-((3-methyl-1,2,3,5,6,7-hexahydrodicyclopenta [b,e]pyridin-8-yl)carbamoyl)-1H-imidazole-4-sulfonimidamide] as the compound, how does the IC50 read?
A: 5 to 30 µM

same assay, conditions: Homo sapiens, THP-1, Table B2; 2% fetal bovine serum; numeric bounds; read-out: hTHP-1 IC50

Q: How did the IC50 turn out when `CC(C)n1nc(S(N)(=O)=NC(=O)Nc2c3c(nc4c2CCC4(C)C)CCC3)cc1CO` (single isomer, unassigned) [Compound 652b] was run?
A: > 30 µM

Q: `CC(C)n1cc(S(N)(=O)=NC(=O)Nc2c3c(nc4c2CCC4(C)C)CCC3)c(CO)n1` (single isomer, unassigned) [Compound 653b, (S) or (R)-N′-((3,3-dimethyl-1,2,3,5,6,7-hexahydrodicyclopenta [b,e]pyridin-8-yl)carbamoyl)-3-(hydroxymethyl)-1-isopropyl-1H-pyrazole-4-sulfonimidamide] was tested. Which IC50 did it give?
A: > 30 µM

Q: For `Cc1c(C(C)(C)C)nc2c(c1NC(=O)N=S(N)(=O)c1cc(C(C)(C)O)cs1)CCC2` (single isomer, unassigned) [Compound 657a, (S) or (R)-N′-((2-(tert-butyl)-3-methyl-6,7-dihydro-5H-cyclopenta[b]pyridin-4-yl)carbamoyl)-4-(2-hydroxypropan-2-yl)thiophene-2-sulfonimidamide], which IC50 is on record?
A: > 30 µM

Q: Which IC50 does the source give for `Cc1c(C2CCC2)nc2c(c1NC(=O)N=S(N)(=O)c1cc(C(C)(C)O)cs1)CCC2` (single isomer, unassigned) [Compound 658a, (S) or (R)-N′-((2-cyclobutyl-3-methyl-6,7-dihydro-5H-cyclopenta[b]pyridin-4-yl)carbamoyl)-4-(2-hydroxypropan-2-yl)thiophene-2-sulfonimidamide] here?
A: > 30 µM

Q: With `CC1CCc2c1nc1c(c2NC(=O)N=S(N)(=O)c2cn(C(C)C)cn2)CCC1` (single isomer, unassigned) [Compound 660c, (S, R) or (R, S) or (S, S) or (R, R)-1-Isopropyl-N′-((3-methyl-1,2,3,5,6,7-hexahydrodicyclopenta [b,e]pyridin-8-yl)carbamoyl)-1H-imidazole-4-sulfonimidamide] as the compound, how does the IC50 read?
A: > 30 µM

same assay, conditions: Table B2; 2% fetal bovine serum; class symbols; read-out: hTHP-1 IC50

Q: With `Cc1c(C2CC2)nc2c(c1NC(=O)N=S(N)(=O)c1cc(C(C)(C)O)n(-c3ccccc3)n1)CCC2` (single isomer, unassigned) [Compound 651a, (S) or (R)-N′-((2-cyclopropyl-3-methyl-6,7-dihydro-5H-cyclopenta[b]pyridin-4-yl)carbamoyl)-5-(2-hydroxypropan-2-yl)-1-phenyl-1H-pyrazole-3-sulfonimidamide] as the compound, how does the IC50 read?
A: 5 to 30 µM

Q: With `Cc1c(C2CC2)nc2c(c1NC(=O)N=S(N)(=O)c1cc(C(C)(C)O)n(-c3ccccc3)n1)CCC2` (single isomer, unassigned) [Compound 651b, (R) or (S)-N′-((2-cyclopropyl-3-methyl-6,7-dihydro-5H-cyclopenta[b]pyridin-4-yl)carbamoyl)-5-(2-hydroxypropan-2-yl)-1-phenyl-1H-pyrazole-3-sulfonimidamide] as the compound, how does the IC50 read?
A: 1 to 5 µM

Q: For `CCc1nc2c(c(NC(=O)N=S(N)(=O)c3cc(C(C)(C)O)cs3)c1C1CC1)CCC2` (single isomer, unassigned) [Compound 654a, (S) or (R)-N′-((3-cyclopropyl-2-ethyl-6,7-dihydro-5H-cyclopenta[b]pyridin-4-yl)carbamoyl)-4-(2-hydroxypropan-2-yl)thiophene-2-sulfonimidamide], which IC50 is on record?
A: 1 to 5 µM

Q: `CCc1nc2c(c(NC(=O)N=S(N)(=O)c3cc(C(C)(C)O)cs3)c1C1CC1)CCC2` (single isomer, unassigned) [Compound 654b] was tested. Which IC50 did it give?
A: 0.2 to 1 µM

Q: `Cc1c(C2CC2)nc2c(c1NC(=O)N=S(N)(=O)c1cc(C(C)(C)O)cs1)CCC2C` (single isomer, unassigned) [Compound 656a, (R, R) or (R, S) or (S, R) or (S, S)-N′-((2-Cyclopropyl-3,7-dimethyl-6,7-dihydro-5H-cyclopenta[b]pyridin-4-yl)carbamoyl)-4-(2-hydroxypropan-2-yl)thiophene-2-sulfonimidamide] was tested. Which IC50 did it give?
A: 0.2 to 1 µM

Q: With `Cc1c(C2CC2)nc2c(c1NC(=O)N=S(N)(=O)c1cc(C(C)(C)O)cs1)CCC2C` (single isomer, unassigned) [Compound 656b, (S, S) or (S, R) or (R, S) or (R, R)-N′-((2-Cyclopropyl-3,7-dimethyl-6,7-dihydro-5H-cyclopenta[b]pyridin-4-yl)carbamoyl)-4-(2-hydroxypropan-2-yl)thiophene-2-sulfonimidamide] as the compound, how does the IC50 read?
A: 5 to 30 µM

Q: Which IC50 does the source give for `Cc1c(C2CC2)nc2c(c1NC(=O)N=S(N)(=O)c1cc(C(C)(C)O)cs1)CCC2C` (single isomer, unassigned) [Compound 656c, (S, R) or (S, S) or (R, S) or (R, R)-N′-((2-Cyclopropyl-3,7-dimethyl-6,7-dihydro-5H-cyclopenta[b]pyridin-4-yl)carbamoyl)-4-(2-hydroxypropan-2-yl)thiophene-2-sulfonimidamide] here?
A: 5 to 30 µM

Q: Which IC50 does the source give for `Cc1c(C2CC2)nc2c(c1NC(=O)N=S(N)(=O)c1cc(C(C)(C)O)cs1)CCC2C` (single isomer, unassigned) [Compound 656d, (R, S) or (R, R) or (S, R) or (S, S)-N′-((2-Cyclopropyl-3,7-dimethyl-6,7-dihydro-5H-cyclopenta[b]pyridin-4-yl)carbamoyl)-4-(2-hydroxypropan-2-yl)thiophene-2-sulfonimidamide] here?
A: 1 to 5 µM

Q: For `CC1(C)CCc2c1nc1c(c2NC(=O)N=S(N)(=O)c2ccn(-c3ccccc3)n2)CCC1` (single isomer, unassigned) [Compound 659a, (S) or (R)-N′-((3,3-dimethyl-1,2,3,5,6,7-hexahydrodicyclopenta [b,e]pyridin-8-yl)carbamoyl)-1-phenyl-1H-pyrazole-3-sulfonimidamide], which IC50 is on record?
A: 5 to 30 µM

Q: Which IC50 does the source give for `CC1(C)CCc2c1nc1c(c2NC(=O)N=S(N)(=O)c2ccn(-c3ccccc3)n2)CCC1` (single isomer, unassigned) [Compound 659b, (R) or (S)-N′-((3,3-dimethyl-1,2,3,5,6,7-hexahydrodicyclopenta [b,e]pyridin-8-yl)carbamoyl)-1-phenyl-1H-pyrazole-3-sulfonimidamide] here?
A: 0.2 to 1 µM

Q: How did the IC50 turn out when `Cc1c(C(F)(F)F)nc2c(c1NC(=O)N=S(N)(=O)c1cnc(C(C)(C)O)s1)CCC2` (single isomer, unassigned) [Compound 661a, (R) or (S)-2-(2-Hydroxypropan-2-yl)-N′-((3-methyl-2-(trifluoromethyl)-6,7-dihydro-5H-cyclopenta[b]pyridin-4-yl)carbamoyl)thiazole-5-sulfonimidamide] was run?
A: 0.2 to 1 µM

Q: How did the IC50 turn out when `Cc1c(C(F)(F)F)nc2c(c1NC(=O)N=S(N)(=O)c1cnc(C(C)(C)O)s1)CCC2` (single isomer, unassigned) [Compound 661b, (S) or (R)-2-(2-Hydroxypropan-2-yl)-N′-((3-methyl-2-(trifluoromethyl)-6,7-dihydro-5H-cyclopenta[b]pyridin-4-yl)carbamoyl)thiazole-5-sulfonimidamide] was run?
A: 5 to 30 µM

same assay, conditions: Table B2; 2% fetal bovine serum; numeric bounds; read-out: hTHP-1 IC50

Q: How did the IC50 turn out when `CC1CCc2c1nc1c(c2NC(=O)N=S(N)(=O)c2cn(C(C)C)cn2)CCC1` (single isomer, unassigned) [Compound 660a, (R, S) or (S, S) or (S, R) or (R, R)-1-Isopropyl-N′-((3-metliyl-1,2,3,5,6,7-hexahydrodicyclopenta [b,e]pyridin-8-yl)carbamoyl)-1H-imidazole-4-sulfonimidamide] was run?
A: > 30 µM

Q: `CC1CCc2c1nc1c(c2NC(=O)N=S(N)(=O)c2cn(C(C)C)cn2)CCC1` (single isomer, unassigned) [Compound 660b, (S, S) or (R, S) or (S, R) or (R, R)-1-Isopropyl-N′-((3-methyl-1,2,3,5,6,7-hexahydrodicyclopenta [b,e]pyridin-8-yl)carbamoyl)-1H-imidazole-4-sulfonimidamide] was tested. Which IC50 did it give?
A: > 30 µM

Q: How did the IC50 turn out when `CCC1CCc2c1nc1c(c2NC(=O)N=S(N)(=O)c2cnc(C(C)(C)O)s2)CCC1` (single isomer, unassigned) [Compound 662a, (S, S) or (S, R) or (R, S) or (R, R)-N′-((3-Ethyl-1,2,3,5,6,7-hexaliydrodicyclopenta [b,e]pyridin-8-yl)caibamoyl)-2-(2-hydroxypropan-2-yl)thiazole-5-sulfonimidamide] was run?
A: > 30 µM
